# US4956363A, “Treatment of cognitive and behavioral disorders associated with aging and with dementia syndromes” (U C B S.A., priority 1988, dated 1990)
# “Also recorded” adds a separate entry of the source.
# Experiments:
# [1] = test system: amnesia induced by scopolamine; assay: Multiple-trial passive avoidance: mnemic retention (amnesia induced by scopolamine); details: for Period of remaining on the mat, group 4, 4 hours / Period of remaining on the mat, group 4, 24 hours / Period of remaining on the mat, group 4, 28 hours: compound i.p. at the dose of the line + scopolamine 0.5 mg i.p.
# Experimental: To this end, the method of multiple-trial passive avoidance has been used. This method is well-known for evaluating the effects which a product exerts on the memory and learning (A. FINE et al., Proc. Natl. Acad. Sci. U.S.A., 82, (1985), 5227-5230).
# The test is carried out on male Sprague-Dawley rats (160-200 g). which are kept in standard cages throughout the experiment.
# The apparatus used is a transparent square cage with 35 cm sides and 25 cm high, fitted with a grid floor which can be electrified. An insulating rubber mat (10×17 cm) is placed on the floor in one of the corners of the cage.
# Each animal is subjected to four tests at times 0, 4, 24 and 28 hours. In the first test (time 0), the animal is placed on the rubber mat and the time which it takes to decide to leave this position to explore the cage is recorded. After 20 seconds of exploration, the rat receives an electric shock (3 seconds duration) in the paws, causing a flight reaction. The rat is immediately removed from the apparatus and replaced in its original cage. In the course of the three subsequent tests (times: 4, 24 and 28 hours), the animal is replaced on the rubber mat and the time taken to leave this position is recorded. When the four paws of the animal rest on the grid, it receives an electric shock and is immediately removed from the apparatus.
# At the start of the experiment, the rats are divided into 4 homogeneous groups of 15 animals. Thirty minutes before each test, each group of animals is subjected to a predetermined treatment:
# Groups 1 and 2 are used in the first experiment and groups 3 and 4 are used in the second experiment.
# The differences observed are analyzed statistically by the Mann-Whitney method.
# [2] = test system: learning of the avoidance reflex; assay: Multiple-trial passive avoidance: learning; assay type: in vivo, rats (male Sprague-Dawley); details: i.p. at the dose (mg/kg) of the line in Table V, 30 min before test; criterion 180 seconds on the mat
# Experimental: To evaluate whether a compound can promote learning, the following test is carried out.
# This experiment is repeated until the animal remains on the rubber mat for at least 180 seconds in order to avoid the electric shock. The learning is expressed by the average number of trials needed to reach a period of 180 seconds remaining on the mat.
# A period of remaining on the rubber mat of 180 seconds is regarded as being the maximum performance which can be realized by the animal to avoid the electric shock. Rats which remain on the mat for this period have acquired the avoidance reflex and are replaced in their original cage without receiving the electric shock.
# group 1 receives an intraperitoneal injection of physiological salt solution:
# group 2 receives an intraperitoneal injection of the compound to be tested:
# Columns 3 and 4 show the results obtained in the test used to evaluate the learning. The figures indicate the average number of trials needed for a control animal (group 1) or an animal treated (group 2) with the compound to learn to remain on the rubber mat for 180 seconds in order to avoid the electric shock. The results were analyzed by the Student test.
# male NMRI mice = assay: Toxicity, Irwin's test; assay type: in vivo; details: mice, i.p.; death of two animals out of three within 48 hours
# Experimental: Progressive doses of the compound to be tested are administered intraperitoneally to groups of three mice until the lethal dose is reached (dose which causes the death of two animals out of three within 48 hours).
# [3] = test system: effects of scopolamine on the EEG, band from 6.4 to 9.6 Hz; assay: Inhibition of the effects of scopolamine on the electroencephalogram (EEG); assay type: in vivo, rats (male albino Sprague-Dawley SPF); details: for Inhibition of the effects of scopolamine on the band from 6.4 to 9.6 Hz in the EEG: rats, i.p. at the dose (mg/kg) of the line in Table IV, scopolamine 0.5 mg/kg i.p.
# Experimental: Male albino Sprague-Dawley SPF rats (160 to 200 g) are used in this test.
# When the animals are 3 months old, 5 cortical electrodes are implanted permanently, aseptically and under a general anesthesia: one inert electrode, one left and one right frontal electrode, and one left and one right occipital electrode (P. ETEVENON, loc. cit.).
# The test is carried out when the animals are about 15 months old. In the meantime, the animals are kept in individual cages. They are given water and food ad libitum and are subjected to a regular daily cycle comprising a period of darkness between 6 o'clock in the evening and 6 o'clock in the morning. At the same time, the animals are progressively acclimatized to the cages of the sound-proof cabin which they will subsequently occupy for recording of the electroencephalograms, as well as to the experimental conditions, by intraperitoneal administration of placebo. The products are administered immediately before the EEG is recorded.
# The rats are divided into groups of 8 animals and 16 samples of the EEG spectra are recorded over 5 seconds (two EEG spectra per animal). The spectra obtained are then analyzed by computer (rapid Fourier transform), which enables the average of the 16 measurements performed to be determined for each group and the overall intensity of the EEG spectrum and the distribution of this intensity (in %) in the various frequency bands to be deduced for each animal.
# This operation (recording of the spectra) is repeated 9 times (total duration: 121 minutes).
# [4] = test system: salivatory effect of oxotremorine (peripheral cholinergic activation); assay: Potentiation of the peripheral cholinergic (salivatory) effect of oxotremorine; assay type: in vivo, mice (male NMRI); details: 20 minutes after administration at the minimum active dose; in words
# Experimental: The degree of peripheral cholinergic activation is measured by the salivatory effect quantified by the following rating system:
# score 1: a little saliva is found around the teeth;
# score 2: the saliva forms a narrow band around the mouth;
# score 4: the saliva wets a surface underneath the chin;
# score 6: the saliva runs from the mouth, for example onto the forelegs.
# The intermediate scores are not used, and the saliva is wiped away after each observation.
# (§1) Male NMRI mice (20 to 25 g) are divided into four groups of five animals, that is to say: one control group and three treated groups.
# The compound to be tested is administered intraperitoneally (to the three treated groups) 20 minutes before the administration of the oxotremorine, at a dose which differs for each of the treated groups. […]
# (§2) For each of the groups, the individual scores recorded at each observation period are summed: this enables to plot a curve showing the sum of the scores as a function of time, which is characteristic for each group.
# (§3) The mean values of the areas under the curves obtained for each of the treated groups are compared with the mean value of the area under the curve corresponding to the control group and is subjected to statistical analysis by the Mann-Whitney method. From this comparison, "a minimum active dose" can be determined. […]
# [5] = test system: tremogenic effect of oxotremorine (central cholinergic activation); assay: Potentiation of the central cholinergic (tremogenic) effect of oxotremorine; assay type: in vivo, mice (male NMRI)
# Experimental: The degree of central cholinergic activation is measured by the tremogenic effect quantified by the following rating system:
# score 1: slight and periodic occasional tremors;
# score 2: moderate and slight tremors often repeated;
# score 4: accentuated tremors, but interrupted by periods of calm;
# score 6: very accentuated and almost continuous tremors.
# as §1
# The compound to be tested is administered intraperitoneally (to the three treated groups) 20 minutes before the administration of the oxotremorine, at a dose which differs for each of the treated groups.
# The oxotremorine is administered intraperitoneally to the treated groups and to the control group at a dose of 0.05 mg/kg dissolved in 10 ml/kg of physiological salt solution. […]
# as §2, §3
# [6] = test system: hyperactivity induced by scopolamine; assay: Inhibition of hyperactivity induced by scopolamine; assay type: in vivo, rats (male Sprague-Dawley SPF); details: administered more than 15 minutes before the measurements; in words
# memory = details: in words, literature; cited from earlier work
# [7] = test system: hyperactivity induced by scopolamine; details: rats placed in a new environment; in words, literature; cited from earlier work
structure (smiles),measurement,setting,value
"CCCc1nc(NC(=O)N(C)C)nc(N2CCOCC2)n1 [Compound 41, N,N-Dimethyl-N'-(4-morpholino-6-propyl-1,3,5-triazin-2-yl)-urea]","Period of remaining on the mat, group 4, 4 hours",[1],15.8 s
same,"Period of remaining on the mat, group 4, 24 hours",[1],27.3 s
same,"Period of remaining on the mat, group 4, 28 hours",[1],66.3 s
same,"Learning, average number of trials (group 2)",[2],1.33
same,Lethal dose,male NMRI mice,294 mg/kg
"CCCc1nc(N)nc(N2CCOCC2)n1 [Compound 44, 2-Amino-4-morpholino-6-propyl-1,3,5-triazine]",Inhibition of the effects of scopolamine on the band from 6.4 to 9.6 Hz in the EEG,[3],100%
same,"Learning, average number of trials (group 2)",[2],1.13
same,Lethal dose,male NMRI mice,779 mg/kg
"CCCc1nc(NC)nc(N2CCOCC2)n1 [Compound 45, 2-(Methylamino)-4-morpholino-6-propyl-1,3,5-triazine]",Inhibition of the effects of scopolamine on the band from 6.4 to 9.6 Hz in the EEG,[3],91.7%
same,"Learning, average number of trials (group 2)",[2],2.00
same,Lethal dose,male NMRI mice,821 mg/kg
"COC(=O)C1=CCCN(C)C1 [arecoline, methyl 1,2,5,6-tetrahydro-1-methyl-3-pyridinecarboxylate]",potentiation of the salivatory effect of oxotremorine,[4],no potentiation
same,potentiation of the tremogenic effect of oxotremorine,"[5]; 20 minutes after administration at the minimum active dose, in words",no potentiation
O=C1CCCN1CC#CCN1CCCC1 [oxotremorine],minimal effective dose,"[5]; Mus musculus, ip, mice, i.p., approximate, read-out: minimum dose of oxotremorine which causes tremors and salivation",~0.05 mg/kg
"CNC(=O)Oc1ccc2c(c1)[C@]1(C)CCN(C)[C@@H]1N2C [physostigmine, reference compound]",Inhibition of the effects of scopolamine on the band from 6.4 to 9.6 Hz in the EEG,[3],76.8%
same,effect on the EEG spectrum,"[3]; scopolamine 0.5 mg/kg i.p. in rats, in words",counteracts these variations
same,activity of physostigmine on the hyperactivity induced by scopolamine,[6],inactive
same,"Period of remaining on the mat, group 4, 4 hours",[1],17.8 s
same,"Period of remaining on the mat, group 4, 24 hours",[1],56.2 s
same,"Period of remaining on the mat, group 4, 28 hours",[1],53.4 s
same,relation of active dose to side effects / toxic dose,"[1]; dose active against the amnesing effect of scopolamine, in words",obtained at a dose which has side effects and is very close to the toxic dose
same,effect against the amnesing effect of scopolamine,[1]; in words,favorable action against the amnesing effect of scopolamine
same,effect on memory,memory,an improvement in anemic disorders; also recorded: capable of combating the amnesia resulting from the administration of anticholinergic agents
same,"Learning, average number of trials (group 2)",[2],2.30
same,effect on exploratory activity,[7],counteracts the hyperactivity induced by scopolamine
CN1[C@@H]2C[C@@H](OC(=O)[C@H](CO)c3ccccc3)C[C@H]1[C@@H]1O[C@@H]12 [scopolamine],effect on memory,memory,gives rise to memory deficiencies similar to those observed in elderly subjects
same,effect on exploratory activity,[7],induces exploratory hyperactivity
